Assay results from article PMC9489211, “Regulation of pulmonary surfactant by the adhesion GPCR GPR116/ADGRF5 requires a tethered agonist-mediated activation mechanism” (eLife, 2022).
Like-named read-outs stand apart in the source and are kept apart here. Where a SMILES comes first, the peptide text is derived from it. Where no end group is shown, it is not given here. [ ]: non-standard residue; d: D form. Nle = CCCC[C@H](N)C(=O)O

T1: full-length hGPR116 (HEK293 clone A6) (Homo sapiens, UniProt Q8IZF2)
T1 construct: expressed in transfected cells
T1 sequence (Q8IZF2 22-1346): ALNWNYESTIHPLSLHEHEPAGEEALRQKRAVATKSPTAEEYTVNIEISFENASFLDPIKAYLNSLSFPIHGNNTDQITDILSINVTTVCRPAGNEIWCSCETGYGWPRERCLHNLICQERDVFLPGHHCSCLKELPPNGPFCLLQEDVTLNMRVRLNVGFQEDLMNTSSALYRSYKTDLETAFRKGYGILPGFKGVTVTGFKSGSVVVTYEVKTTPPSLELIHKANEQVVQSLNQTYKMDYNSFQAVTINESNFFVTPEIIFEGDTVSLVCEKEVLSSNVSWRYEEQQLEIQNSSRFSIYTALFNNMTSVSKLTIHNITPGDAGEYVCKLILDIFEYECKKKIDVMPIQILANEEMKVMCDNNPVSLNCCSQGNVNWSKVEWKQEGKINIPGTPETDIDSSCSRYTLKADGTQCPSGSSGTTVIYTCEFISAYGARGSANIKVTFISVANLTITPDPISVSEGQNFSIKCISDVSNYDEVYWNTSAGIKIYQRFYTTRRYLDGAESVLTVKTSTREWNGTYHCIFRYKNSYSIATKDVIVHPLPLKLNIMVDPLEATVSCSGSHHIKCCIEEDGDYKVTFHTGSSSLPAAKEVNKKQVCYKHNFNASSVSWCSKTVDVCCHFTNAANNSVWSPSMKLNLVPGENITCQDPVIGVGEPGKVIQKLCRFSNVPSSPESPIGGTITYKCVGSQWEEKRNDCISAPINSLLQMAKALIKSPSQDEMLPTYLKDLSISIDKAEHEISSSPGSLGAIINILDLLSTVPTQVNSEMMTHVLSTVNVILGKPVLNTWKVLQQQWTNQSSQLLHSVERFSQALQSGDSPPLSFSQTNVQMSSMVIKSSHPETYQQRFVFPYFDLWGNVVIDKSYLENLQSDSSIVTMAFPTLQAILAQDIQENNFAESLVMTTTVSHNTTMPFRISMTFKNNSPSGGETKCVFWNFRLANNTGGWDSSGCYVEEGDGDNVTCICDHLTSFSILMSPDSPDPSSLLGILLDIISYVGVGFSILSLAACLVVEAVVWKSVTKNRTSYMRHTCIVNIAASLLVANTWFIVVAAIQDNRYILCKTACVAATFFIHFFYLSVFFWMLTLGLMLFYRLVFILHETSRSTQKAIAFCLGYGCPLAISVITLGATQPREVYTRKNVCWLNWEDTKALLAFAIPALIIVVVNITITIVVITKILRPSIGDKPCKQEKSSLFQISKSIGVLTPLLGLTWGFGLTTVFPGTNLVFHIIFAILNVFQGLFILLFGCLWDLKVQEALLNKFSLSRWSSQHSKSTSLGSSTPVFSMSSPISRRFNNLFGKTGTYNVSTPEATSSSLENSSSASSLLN

T2: full-length mGPR116 (HEK293 clone 3C) (Mus musculus, UniProt G5E8Q8)
T2 construct: expressed in transfected cells
T2 sequence (G5E8Q8 22-1348): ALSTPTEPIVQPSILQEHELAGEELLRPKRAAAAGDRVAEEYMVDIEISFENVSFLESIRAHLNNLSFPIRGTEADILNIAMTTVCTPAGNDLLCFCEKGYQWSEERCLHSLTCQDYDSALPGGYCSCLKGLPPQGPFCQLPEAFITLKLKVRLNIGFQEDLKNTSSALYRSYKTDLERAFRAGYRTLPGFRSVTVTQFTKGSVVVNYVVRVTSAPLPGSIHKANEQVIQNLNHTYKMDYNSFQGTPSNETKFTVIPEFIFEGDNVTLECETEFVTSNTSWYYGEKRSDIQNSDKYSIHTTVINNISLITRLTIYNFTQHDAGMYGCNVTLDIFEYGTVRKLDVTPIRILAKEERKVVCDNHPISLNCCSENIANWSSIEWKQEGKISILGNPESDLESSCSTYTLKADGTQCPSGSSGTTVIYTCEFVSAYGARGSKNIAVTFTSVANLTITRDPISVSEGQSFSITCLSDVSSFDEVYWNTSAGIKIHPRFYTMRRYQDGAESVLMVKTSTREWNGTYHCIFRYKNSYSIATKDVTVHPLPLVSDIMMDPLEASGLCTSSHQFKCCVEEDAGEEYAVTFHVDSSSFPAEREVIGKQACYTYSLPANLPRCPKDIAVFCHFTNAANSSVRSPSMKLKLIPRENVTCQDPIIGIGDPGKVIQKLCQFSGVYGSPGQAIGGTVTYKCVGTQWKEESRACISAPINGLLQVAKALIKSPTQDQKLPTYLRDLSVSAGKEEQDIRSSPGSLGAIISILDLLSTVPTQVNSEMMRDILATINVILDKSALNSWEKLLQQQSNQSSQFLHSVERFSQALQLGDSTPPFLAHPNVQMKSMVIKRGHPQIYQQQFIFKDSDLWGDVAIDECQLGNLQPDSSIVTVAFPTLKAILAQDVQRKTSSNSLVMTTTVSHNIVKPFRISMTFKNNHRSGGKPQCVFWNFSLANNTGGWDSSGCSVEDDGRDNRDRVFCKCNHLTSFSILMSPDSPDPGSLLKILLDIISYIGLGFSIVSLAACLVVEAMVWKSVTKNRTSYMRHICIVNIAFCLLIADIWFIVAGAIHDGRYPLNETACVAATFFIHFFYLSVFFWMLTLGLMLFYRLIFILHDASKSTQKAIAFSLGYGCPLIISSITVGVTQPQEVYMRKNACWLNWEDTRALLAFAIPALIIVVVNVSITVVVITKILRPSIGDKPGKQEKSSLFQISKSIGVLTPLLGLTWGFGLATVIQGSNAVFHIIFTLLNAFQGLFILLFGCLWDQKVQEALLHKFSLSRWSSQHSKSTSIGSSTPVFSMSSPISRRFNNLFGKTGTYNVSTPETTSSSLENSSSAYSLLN

T3: mouse GPR116 full-length, V5 tagged, clone 1D8 (mouse) (UniProt G5E8Q8)
T3 sequence: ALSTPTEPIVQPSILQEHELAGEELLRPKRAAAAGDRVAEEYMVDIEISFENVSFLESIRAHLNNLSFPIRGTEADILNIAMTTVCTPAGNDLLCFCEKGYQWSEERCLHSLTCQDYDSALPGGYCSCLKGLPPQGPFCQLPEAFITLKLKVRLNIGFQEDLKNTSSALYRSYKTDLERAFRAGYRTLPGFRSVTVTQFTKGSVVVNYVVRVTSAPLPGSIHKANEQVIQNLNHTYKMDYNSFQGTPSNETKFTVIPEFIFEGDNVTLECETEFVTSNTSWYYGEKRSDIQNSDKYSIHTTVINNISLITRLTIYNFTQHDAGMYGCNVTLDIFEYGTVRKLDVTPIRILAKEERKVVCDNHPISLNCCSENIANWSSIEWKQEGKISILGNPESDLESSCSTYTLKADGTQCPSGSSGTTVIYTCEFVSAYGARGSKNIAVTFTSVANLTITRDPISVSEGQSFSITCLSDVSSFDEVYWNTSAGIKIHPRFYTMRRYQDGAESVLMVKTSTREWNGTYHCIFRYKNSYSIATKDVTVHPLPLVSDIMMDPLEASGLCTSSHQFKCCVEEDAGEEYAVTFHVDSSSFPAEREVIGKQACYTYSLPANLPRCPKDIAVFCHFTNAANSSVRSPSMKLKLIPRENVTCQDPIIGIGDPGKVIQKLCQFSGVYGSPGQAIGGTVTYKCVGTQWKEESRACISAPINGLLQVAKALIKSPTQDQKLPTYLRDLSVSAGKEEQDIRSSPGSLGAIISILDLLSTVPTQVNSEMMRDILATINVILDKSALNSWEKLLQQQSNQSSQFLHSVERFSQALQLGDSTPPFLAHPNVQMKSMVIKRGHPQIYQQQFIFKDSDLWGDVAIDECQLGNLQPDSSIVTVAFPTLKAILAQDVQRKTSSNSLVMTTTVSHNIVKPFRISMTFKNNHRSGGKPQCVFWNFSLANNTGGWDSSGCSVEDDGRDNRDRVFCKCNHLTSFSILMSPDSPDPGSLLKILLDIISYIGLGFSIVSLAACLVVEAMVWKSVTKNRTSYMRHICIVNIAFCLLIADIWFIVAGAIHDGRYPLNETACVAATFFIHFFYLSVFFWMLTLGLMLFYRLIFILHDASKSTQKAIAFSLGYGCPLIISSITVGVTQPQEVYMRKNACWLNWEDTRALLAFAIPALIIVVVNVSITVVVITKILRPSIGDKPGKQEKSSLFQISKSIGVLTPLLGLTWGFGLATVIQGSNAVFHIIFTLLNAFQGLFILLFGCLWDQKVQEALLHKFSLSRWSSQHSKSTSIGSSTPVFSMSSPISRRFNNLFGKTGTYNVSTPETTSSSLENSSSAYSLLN


Tests used:
[1] = biological target: T1, full-length hGPR116 (HEK293 clone A6); test: Calcium transient assay, full-length hGPR116 stably expressed in HEK293 (clone A6); type: cell-based; details: calcium transients, hFL clone A6, Figure 3-figure supplement 2 / Figure 7A
Description: (§1) For some constructs, stable populations were generated by treating the cells with G418. After complete selection of resistant cells, these were used in assays. Stable HEK293 clones for full-length hGPR116 (clone A6) and mGPR116 (clone 3C) were described earlier ([Brown et al., 2017]).
(§2) HEK293 cells were seeded in 384-well plates (Greiner, #781946) at 30,000 cells/well. Medium was removed the following day and cells were loaded for 2 hr at 37°C, 5% CO2 with 20 µl Calcium 6 loading buffer (Molecular Devices, Cat# R8191): 1× HBSS (Gibco, Cat# 14065.049) containing 20 mM HEPES (Gibco, Cat#15630) and 2.5 mM probenecid (Sigma, Cat# P8761). Plates were then transferred to a FDSS7000 fluorescence plate reader (HAMAMATSU, Japan) and Ca^2+ responses were measured in real time using a CCD camera with excitation 480 nm/emission 540 nm. Prior to stimulation, baseline measurements were recorded over 5 s (Fmin). For stimulation, 20 µl of test compounds prepared 2× in HBSS containing 20 mM HEPES were dispensed. Fluorescence was read over 1–1.5 min. Maximum fluorescence (Fmax) was determined and normalized to baseline. Data are reported as ∆F/F = (Fmax – Fmin)/Fmin. Adequate response of the endogenous M3R was verified for each transfection, using carbachol at 100 µM and following the same procedure as for the peptide activation.
(§3) Concentration response curves were analyzed using GraphPad Prism 9.2.0. Potency was determined using a nonlinear regression model with variable slope, and statistical significance was determined using a one-way ANOVA followed by Dunnett’s multiple comparison test or a TTEST for comparison of two data sets (*p<0.05, **p<0.01, ***p<0.001, ****p<0.0001, ns, not significant).

[2] = biological target: T2, full-length mGPR116 (HEK293 clone 3C); test: Calcium transient assay, full-length mGPR116 stably expressed in HEK293 (clone 3C); type: cell-based; details: for activation of the mouse full-length receptor (in words): calcium flux assays, Figure 3F
Description: as §1, §2, §3

[3] = biological target: T3, mouse GPR116 full-length, V5 tagged, clone 1D8 (mouse)

Molecule | activation of the human full-length receptor (in words) [1] | activation of the mouse full-length receptor (in words) [2] | EC50 of receptor activation (calcium transients), HEK293 cells stably expressing the receptor [3] [µM] | also measured
CCCC[C@H](NC(=O)[C@H](CC(C)C)NC(=O)[C@@H](NC(=O)[C@H](CO)NC(=O)[C@H](C)NC(=O)[C@H](CO)NC(=O)[C@@H](N)[C@@H](C)O)[C@@H](C)CC)C(=O)N[C@@H](CO)C(=O)N1CCC[C@H]1C(=O)N[C@@H](CC(=O)O)C(=O)O [GAP10-POS3] (H-TSASIL[Nle]SPD-OH; N-terminus and C-terminus assumed) | failed to activate | failed to activate | – | EC50 ([2]; calcium transient assay, HEK293 clone 3C, Fig 3F, independent experiment n=1 (mean of quadruplicate), read-out: EC50 (uM) n=1): > 100 µM; EC50 ([2]; calcium transient assay, HEK293 clone 3C, Fig 3F, independent experiment n=2 (mean of quadruplicate), read-out: EC50 (uM) n=2): > 100 µM; EC50 ([2]; calcium transient assay, HEK293 clone 3C, Fig 3F, independent experiment n=3 (mean of quadruplicate), read-out: EC50 (uM) n=3): > 100 µM; EC50 ([2]; calcium transient assay, HEK293 clone 3C, Fig 3F, mean of n=2-3 independent experiments, read-out: EC50 (uM) mean): > 100 µM
CCCC[C@H](NC(=O)[C@H](C)NC(=O)[C@@H](NC(=O)[C@H](CO)NC(=O)[C@H](Cc1ccccc1)NC(=O)[C@H](CO)NC(=O)[C@@H](N)[C@@H](C)O)[C@@H](C)CC)C(=O)N[C@@H](CO)C(=O)N1CCC[C@H]1C(=O)N[C@@H](CC(=O)O)C(=O)O [GAP10-POS6] (H-TSFSIA[Nle]SPD-OH; N-terminus and C-terminus assumed) | failed to activate | failed to activate | – | –
TSFSILASPD [GAP10-POS7] | failed to activate | failed to activate | – | –
TSFSILMSPD [GAP10] | – | – | – | EC50 (uM) n=1 ([2]; calcium transient assay, HEK293 clone 3C, Fig 3F, independent experiment n=1 (mean of quadruplicate)): 16.0 µM; EC50 (uM) n=2 ([2]; calcium transient assay, HEK293 clone 3C, Fig 3F, independent experiment n=2 (mean of quadruplicate)): 8.6 µM; EC50 (uM) n=3 ([2]; calcium transient assay, HEK293 clone 3C, Fig 3F, independent experiment n=3 (mean of quadruplicate)): 6.9 µM
TSFSIL[Nle]SPD [GAP10] | – | – | 25 | –

More lines, main results first:

activation of the human full-length receptor (in words) [1] | activation of the mouse full-length receptor (in words) [2] | EC50 of receptor activation (calcium transients), HEK293 cells stably expressing the receptor [3] [µM] | Molecule | also measured
– | – | 107 | TSFSIL[Nle]SPDSPDP [GAP14] | –
– | – | 17 | PSFSIL[Nle]SPD [GAP10-Pro1] | –
